According to ChEMBL document CHEMBL4680171, “Oxadiazolylthiazoles as novel and selective antifungal agents” (Eur J Med Chem, 2020):
≈ marks a conversion by molar mass, not a printed value. Calls of active or inactive are those of the source. No cut-off for these calls is given here.

Legend:
[1] = test system: Staphylococcus aureus; assay: Antibacterial activity against methicillin resistant Staphylococcus aureus subsp. aureus USA300 assessed as reduction in bacterial growth by CLSI based broth microdilution method; assay type: functional
[2] = test system: Escherichia coli; assay: Antibacterial activity against Escherichia coli JW55031 harboring tolC mutation assessed as reduction in bacterial growth by CLSI based broth microdilution method; assay type: functional
[3] = test system: Clostridioides difficile; assay: Antibacterial activity against Clostridium difficile BAA1870 assessed as reduction in bacterial growth by CLSI based broth microdilution method; assay type: functional
[4] = test system: Candida albicans; assay: Antifungal activity against Candida albicans ATCC 10231 assessed as reduction in fungal growth incubated for 24 hrs by CLSI based broth microdilution method; assay type: functional
[5] = test system: Candida albicans; assay: Antifungal activity against fluconazole-resistant Candida albicans NR29448 assessed as reduction in fungal growth incubated for 24 hrs by CLSI based broth microdilution method; assay type: functional
[6] = test system: [Candida] auris; assay: Antifungal activity against fluconazole-resistant Candida auris 381 assessed as reduction in fungal growth incubated for 24 hrs by CLSI based broth microdilution method; assay type: functional; conditions: Candidozyma auris
[7] = test system: [Candida] auris; assay: Antifungal activity against fluconazole-resistant Candida auris 383 assessed as reduction in fungal growth incubated for 24 hrs by CLSI based broth microdilution method; assay type: functional; conditions: Candidozyma auris
[8] = test system: [Candida] auris; assay: Antifungal activity against fluconazole-resistant Candida auris 384 assessed as reduction in fungal growth incubated for 24 hrs by CLSI based broth microdilution method; assay type: functional; conditions: Candidozyma auris
[9] = test system: Nakaseomyces glabratus; assay: Antifungal activity against Candida glabrata ATCC 66032 assessed as reduction in fungal growth incubated for 24 hrs by CLSI based broth microdilution method; assay type: functional
[10] = test system: Nakaseomyces glabratus; assay: Antifungal activity against Candida glabrata ATCC MYA-2950 assessed as reduction in fungal growth incubated for 24 hrs by CLSI based broth microdilution method; assay type: functional
[11] = test system: Candida parapsilosis; assay: Antifungal activity against Candida parapsilosis ATCC 22019 assessed as reduction in fungal growth incubated for 24 hrs by CLSI based broth microdilution method; assay type: functional; conditions: Lodderomyces parapsilosis
[12] = test system: Candida parapsilosis; assay: Antifungal activity against Candida parapsilosis CAB 502638 assessed as reduction in fungal growth incubated for 24 hrs by CLSI based broth microdilution method; assay type: functional; conditions: Lodderomyces parapsilosis
[13] = test system: Pichia kudriavzevii; assay: Antifungal activity against Candida krusei CAB 396420 assessed as reduction in fungal growth incubated for 24 hrs by CLSI based broth microdilution method; assay type: functional
[14] = test system: Pichia kudriavzevii; assay: Antifungal activity against Candida krusei ATCC 34135 assessed as reduction in fungal growth incubated for 24 hrs by CLSI based broth microdilution method; assay type: functional
[15] = test system: Cryptococcus neoformans; assay: Antifungal activity against Cryptococcus neoformans NR41298 assessed as reduction in fungal growth incubated for 48 hrs by CLSI based broth microdilution method; assay type: functional
[16] = test system: Cryptococcus neoformans; assay: Antifungal activity against Cryptococcus neoformans NR41300 assessed as reduction in fungal growth incubated for 48 hrs by CLSI based broth microdilution method; assay type: functional
[17] = test system: Cryptococcus neoformans; assay: Antifungal activity against Cryptococcus neoformans NR48770 assessed as reduction in fungal growth incubated for 48 hrs by CLSI based broth microdilution method; assay type: functional
[18] = test system: Cryptococcus gattii species complex; assay: Antifungal activity against Cryptococcus gattii NR43210 assessed as reduction in fungal growth incubated for 48 hrs by CLSI based broth microdilution method; assay type: functional, Cryptococcus bacillisporus
[19] = test system: Cryptococcus gattii species complex; assay: Antifungal activity against Cryptococcus gattii NR43209 assessed as reduction in fungal growth incubated for 48 hrs by CLSI based broth microdilution method; assay type: functional, Cryptococcus bacillisporus
[20] = test system: Aspergillus fumigatus; assay: Antifungal activity against Aspergillus fumigatus NR 35303 assessed as reduction in fungal growth incubated for 24 hrs by CLSI based broth microdilution method; assay type: functional
[21] = test system: Aspergillus fumigatus; assay: Antifungal activity against Aspergillus fumigatus NR 35304 assessed as reduction in fungal growth incubated for 24 hrs by CLSI based broth microdilution method; assay type: functional
[22] = test system: Lactobacillus gasseri; assay: Antibacterial activity against Lactobacillus gasseri HM-400 assessed as reduction in bacterial growth by CLSI based assay
[23] = test system: Lactobacillus crispatus; assay: Antibacterial activity against Lactobacillus crispatus HM-370 assessed as reduction in bacterial growth by CLSI based assay
[24] = Cytotoxicity against human Caco-2 cells assessed as cell viability up to 64 ug/ml incubated for 24 hrs by MTS assay; assay type: cell-based; conditions: dose <=64 µg/ml, read-out: Activity
[25] = Cytotoxicity against African green monkey Vero cells assessed as reduction in cell viability incubated for 2 hrs by MTS assay; assay type: cell-based; conditions: chlorocebus sabaeus
[26] = test system: Candida albicans; assay: Antifungal activity against Candida albicans SS5314 assessed as reduction in fungal growth measured after 10 passages by CLSI based broth microdilution method; assay type: functional, organism-based
[27] = test system: Candida albicans; assay: Antifungal activity against Candida albicans SS5314 assessed as reduction in fungal growth incubated for 24 hrs by CLSI based broth microdilution method; assay type: functional
[28] = Selectivity index, ratio of CC50 for African green monkey Vero cells to MIC for antifungal activity against Candida albicans ATCC 10231; assay type: toxicity; conditions: read-out: Selectivity Index
[29] = Selectivity index, ratio of CC50 for African green monkey Vero cells to MIC for antifungal activity against fluconazole-resistant Candida albicans NR29448; assay type: toxicity; conditions: read-out: Selectivity Index
[30] = Selectivity index, ratio of CC50 for African green monkey Vero cells to MIC for antifungal activity against fluconazole-resistant Candida auris 383; assay type: toxicity; conditions: read-out: Selectivity Index
[31] = Selectivity index, ratio of CC50 for African green monkey Vero cells to MIC for antifungal activity against Candida parapsilosis ATCC 22019; assay type: toxicity; conditions: read-out: Selectivity Index
[32] = Selectivity index, ratio of CC50 for African green monkey Vero cells to MIC for antifungal activity against Candida parapsilosis CAB 502638; assay type: toxicity; conditions: read-out: Selectivity Index
[33] = Selectivity index, ratio of CC50 for African green monkey Vero cells to MIC for antifungal activity against Candida krusei ATCC 34135; assay type: toxicity; conditions: read-out: Selectivity Index
[34] = Selectivity index, ratio of CC50 for African green monkey Vero cells to MIC for antifungal activity against Cryptococcus neoformans NR41298; assay type: toxicity; conditions: read-out: Selectivity Index
[35] = Selectivity index, ratio of maximum non-toxic concentration for human Caco-2 cells to MIC for antifungal activity against fluconazole-resistant Candida auris 381; assay type: toxicity; conditions: read-out: Selectivity Index
[36] = Selectivity index, ratio of maximum non-toxic concentration for human Caco-2 cells to MIC for antifungal activity against fluconazole-resistant Candida auris 383; assay type: toxicity; conditions: read-out: Selectivity Index
[37] = Selectivity index, ratio of maximum non-toxic concentration for human Caco-2 cells to MIC for antifungal activity against fluconazole-resistant Candida auris 384; assay type: toxicity; conditions: read-out: Selectivity Index
[38] = Selectivity index, ratio of maximum non-toxic concentration for human Caco-2 cells to MIC for antifungal activity against Candida glabrata ATCC 66032; assay type: toxicity; conditions: read-out: Selectivity Index
[39] = Selectivity index, ratio of maximum non-toxic concentration for human Caco-2 cells to MIC for antifungal activity against Candida krusei CAB 396420; assay type: toxicity; conditions: read-out: Selectivity Index
[40] = Selectivity index, ratio of maximum non-toxic concentration for human Caco-2 cells to MIC for antifungal activity against Candida krusei ATCC 34135; assay type: toxicity; conditions: read-out: Selectivity Index
[41] = Selectivity index, ratio of maximum non-toxic concentration for human Caco-2 cells to MIC for antifungal activity against Cryptococcus neoformans NR41298; assay type: toxicity; conditions: read-out: Selectivity Index
[42] = Selectivity index, ratio of maximum non-toxic concentration for human Caco-2 cells to MIC for antifungal activity against Cryptococcus neoformans NR48770; assay type: toxicity; conditions: read-out: Selectivity Index
[43] = Selectivity index, ratio of maximum non-toxic concentration for human Caco-2 cells to MIC for antifungal activity against Cryptococcus gattii NR43210; assay type: toxicity; conditions: read-out: Selectivity Index

## Cc1nc(-c2ccc(C(C)(C)C)cc2)sc1-c1nnc(N[C@@H]2CCCC[C@@H]2N)o1 (relative stereo)
[1]
  MIC: > 64 µg/mL
[2]
  MIC: > 64 µg/mL
[3]
  MIC: 64 µg/mL (≈ 156 µM)
[4]
  MIC: 8 µg/mL (≈ 19.4 µM)
[5]
  MIC: 8 µg/mL (≈ 19.4 µM)
[6]
  MIC: 4 µg/mL (≈ 9.72 µM)
[7]
  MIC: 2 µg/mL (≈ 4.86 µM)
[8]
  MIC: 4 µg/mL (≈ 9.72 µM)
[9]
  MIC: 0.5 µg/mL (≈ 1.21 µM)
[10]
  MIC: 0.125 µg/mL (≈ 0.304 µM)
[11]
  MIC: 1 µg/mL (≈ 2.43 µM)
[12]
  MIC: 1 µg/mL (≈ 2.43 µM)
[13]
  MIC: 1 µg/mL (≈ 2.43 µM)
[14]
  MIC: 2 µg/mL (≈ 4.86 µM)
[15]
  MIC: 2 µg/mL (≈ 4.86 µM)
[16]
  MIC: 2 µg/mL (≈ 4.86 µM)
[17]
  MIC: 1 µg/mL (≈ 2.43 µM)
[18]
  MIC: 1 µg/mL (≈ 2.43 µM)
[19]
  MIC: 1 µg/mL (≈ 2.43 µM)
[20]
  MIC: 8 µg/mL (≈ 19.4 µM)
[21]
  MIC: 4 µg/mL (≈ 9.72 µM)
[22]
  MIC: 128 µg/mL (≈ 311 µM)
[23]
  MIC: > 128 µg/mL
[24]
  viability at 24 h: 100%
[25]
  CC50 at 2 h: > 64 µg/mL
[26]
  Activity: Active
[27]
  MIC: 2 µg/mL (≈ 4.86 µM)
[28]
  selectivity ratio: ≤ 64
[29]
  selectivity ratio: ≤ 64
[30]
  selectivity ratio: ≤ 64
[31]
  selectivity ratio: ≤ 64
[32]
  selectivity ratio: ≤ 64
[33]
  selectivity ratio: ≤ 64
[34]
  selectivity ratio: ≤ 64
[35]
  selectivity ratio: ≤ 64
[36]
  selectivity ratio: ≤ 64
[37]
  selectivity ratio: ≤ 64
[38]
  selectivity ratio: ≤ 64
[39]
  selectivity ratio: ≤ 64
[40]
  selectivity ratio: ≤ 64
[41]
  selectivity ratio: ≤ 64
[42]
  selectivity ratio: ≤ 64
[43]
  selectivity ratio: ≤ 64
